Columns and labels:
Type in all cases: in vivo, C57BL/6 mice
[1] = system: NKT cells of the liver; experiment: Flow cytometric analysis of liver NKT cells after intraperitoneal administration; details: 2 μg/mouse, abdominal cavity
Procedure: C57BL/6 8th-week mice were used. […] Additionally, individuals that received 2 μg/mouse were used as positive controls. After dosing, lymphocytes were separated from the livers of the mice over time. Double labeling immunostaining was undertaken with 2 types of h monoclonal antibodies. FITC-labeled anti-CD3 (Phatrningen) and PE-labeled anti-NK1.1 (Pharmingen). Thereafter, flow cytometric analysis (FACSCalibur, Becton-Dickinson) was undertaken for dynamic states of NKT cells. In addition, a method of lymphocyte separation from the livers and the immunostaining method were subject to the methods of Non-Patent Document 7.
Cytograms show fluorescence intensities for FITC-labeled anti-CD3 on the horizontal axis and PE-labeled anti-NK1.1 antibody on the vertical axis in a log scale fashion. The larger the fluorescence intensities for FITC, the greater the number of CD3 molecules on the surfaces of cells. And the larger the PE fluorescence intensities, the greater the number of NK1.1 molecules on the measured surfaces of cells. […] Additionally, numeric values within the fractions represent the percentages of cells included in such fractions relative to all measured cells.

[2] = system: INF-γ; experiment: Level of INF-γ in serum by ELISA; details: 2 μg/mouse αGalcer, normal mouse about 40 μg/ml, FIG. 14
Procedure: Mice prepared in the third embodiment were used. After about 1 ml of blood had been collected from each mouse over time, serum was separated. The level of INF-γ in such serum was measured in accordance with the ELISA test. In regards to the ELISA test, a BD Opt EIA set (Pharmingen) was used, and the method was subject to the attached protocol.

[3] = system: GPT; experiment: Transaminase values in the serums (GPT), liver damage; details: 2 μg/mouse, serum, normal mice about 11 IU/L
Procedure: The mice prepared in the third embodiment were used. After collecting about 1 ml of blood from each mouse over time, serums were separated. Transaminase values in the serums (GPT) were measured using of a Transaminase CII Test Wake (Wake Pure Chemical Industries, Ltd) as an extracorporeal diagnostic kit. The method for measurement was subject to the protocol attached with the kit. In addition, generally speaking, red cells of mice are easily hemolyzed. Thus. GOT values regarding which errors easily occur to results of measurements are not presented herein.
Herein, first, brief explanations are given in regards to GPT in the serums. GPT normally functions in liver cells. Due to destruction of […] caused by liver damage, such as hepatitis and the like, GPT leaks into the blood. Thus, increase of GPT values in the blood is an index of liver damage. Generally, it is understood that liver damage, such as hepatitis and the like, exists when the figures are greater than 100 IU (international unit)/L (liter).

[4] = system: NKT cells (CD3+NK1.1+); experiment: Annexin V detection of apoptosis in liver NKT cell fractions; details: 2 μg/mouse; 24 hours after dosing; normal mice peak around 10
Procedure: (§1) The basic method for the experiment is the same as that of the third embodiment. C57BL/6 8th-week mice were used. […] And 2 μg/mouse of αGalcer was likewise administered. After 24 hours following the dosing, lymphocytes had been separated from the livers of the mice over time. Triple labeling immunostaining was undertaken by fluorescently-labeled monoclonal antibody based on […] anti-CD3 antibody (Pharmingen) and PE-labeled anti-NK1.1 antibody (Pharmingen) for detection of NKT cells (CD3^+NK1.1^+), and FITC labeled Annexin V (Pharmingen) for detection of apoptosis cells. The method for immunostaining was subject to that of Non-Patent Document 1. Next, PerCP and PE were detected via flow cytometric analysis (FACSCalibur, Becton-Dickinson). Based on the fluorescence intensity thereof, NKT cells fractions (areas shown in c of FIG. 13) were obtained. […] According to the embodiment, cells which caused apoptosis within the fractions were detected via measurement of fluorescence intensity of FITC in such fractions. […]
(§2) Histograms of mouse NKT cell fractions and T cell fractions of unprocessed normal mouse cells are shown (A and D). […] The fluorescence intensity of fluorescent substance C is shown on the horizontal axis and the number of cells (in units) is shown on the vertical axis for each profile. […]

[5] = system: T cells; experiment: Annexin V detection of apoptosis in liver T cell fractions (control); details: 2 μg/mouse; 24 hours after dosing
Procedure: as §1, §2

CCCCCCCCCCCCCCCCCCCCCCCCCC(=O)N[C@@H](CO[C@H]1O[C@H](CO)[C@H](O)[C@H](O)[C@H]1O)[C@H](O)[C@H](O)CCCCCCCCCCCCCC [αGalCer, a-Galactosyl ceramide]
NKT cells in the liver ([1]; 24 hours following administration): such tendency had not changed
NKT cells in the liver ([1]; within 12 hours following dosing): most NKT cells in the liver disappeared
level of INF-γ in the blood [2]: about 3,000 μg/ml
GPT values ([3]; after 12 hours): 116 IU/L
GPT values ([3]; after 24 hours): 183 IU/L
peak of Annexin V fluorescence intensity in NKT cell fraction [4]: ~200
apoptosis induction in T cells [5]: Apoptosis induction could not be recognized

— patent US20130022641A1, “Anti-Tumor Agent and Immunostimulating Agent” (ORION BREWERIES, LTD., priority 2005, published 2013)
